94 molecules from a melting point compilation (Tetko et al.; mined from patent text by program, amines drawn as free bases though some values may be those of a salt) can be followed below.

SMILES strings stand for the structures.

In general, melting point refers to the temperature, or range, at which the solid turns liquid. Regarding `O=C1c2ccccc2C(=O)N1CCCCc1nc[nH]n1`, the melting point lay in the range of 169 to 171 °C.

Molecule `Cc1cc2[nH]c3ccccc3n2n1` gave a melting point of 250 to 252 °C. On to `O=C(Nc1ccccc1)NC1CCN(Cc2ccccc2)CC1`, for which the melting point lay within 161 to 162 °C.

For the molecule `CNC(=C[N+](=O)[O-])NCCCCOc1cccc(CCCN(C)C)c1`, the melting point fell in the range of 79 to 80.5 °C. `CCCCc1nc2cccc(C(=O)OCc3ccncc3)c2n1Cc1ccc(-c2ccccc2-c2nnn[nH]2)cc1` came in with a melting point of 179 to 180 °C. As for `Cc1cc(Nc2cncc(-c3ccccc3)n2)n[nH]1`, the figure is 232 to 234 °C. On to `S=C1CC2Cc3ccc(Cl)cc3C2N1` (centres undefined), for which the melting point lay in the range of 225 to 227 °C. As for `COC(=O)c1cc(N2CCC2)c(C(F)(F)F)cc1N`, the figure is 80 to 86 °C; as for `Nc1nc(NCCO)nc(-c2cc(Cl)ccc2Cl)n1`, 198 to 199 °C. As for `CC(C)=Cc1ccc(-c2ccc(C(CC3CCOCC3)c3ccc(S(=O)(=O)C4CC4)cc3)[nH]2)nc1` (centres undefined), the melting point was in the range of 114 to 116 °C.

For `O=C(O)C(NC(=O)C(F)(F)F)c1ccc(Cl)cc1` (centres undefined), the melting point was 170 to 172 °C.

For the molecule `CCOC(=O)c1ncn2c1CNC(=O)c1ccccc1-2`, the melting point was 248 to 250 °C. As for `COc1ccc(C2=NN(c3ccc(C4=NNC(=O)CC4C)cc3)C(=O)C3CCCCC23)cc1OC1CCCC1` (centres undefined), the melting point lay in the range of 134 to 141 °C. `CC1=Nc2ccc(S(N)(=O)=O)cc2S(=O)(=O)N1` returned a melting point of 295 to 297 °C.

The molecule `CC(C)(CO)OCc1nn(Cc2ccccc2)c2ccccc12` registered a melting point of 52 to 53 °C. On to `Sc1ccc(OCc2ccccc2)nn1`, for which the melting point lay in the range of 155 to 157 °C.

Take `COc1ccc(-c2ccc(C(=O)Nc3cccc(CC(=O)O)c3)o2)cc1`: the melting point was 179 to 180 °C. The molecule `O=C(c1ccccc1)N1CCC(CO)CC1` registered a melting point of 83 to 85 °C. As for `COc1cc(C)c2ccc(=O)[nH]c2n1`, the figure is 214 to 216 °C; as for `CCCCc1nc(C(=O)C(C)C)c(C#N)[nH]1`, 88 to 89 °C. In the case of `Cn1cc(C(N)=O)c(=O)c2ccc(Cl)cc21`, the melting point was above 240 °C.

In turn, `NCCc1ccc(C(=O)CCC(=O)O)cc1` yielded a melting point of 234 to 235 °C. As for `Cc1ccc(C(C)Oc2cnn(C(C)(C)C)c(=O)c2Cl)cc1` (centres undefined), the figure is 104 to 106 °C; as for `CCOC(=O)c1cccc(Nc2ccncc2N)c1`, 80 to 91 °C; as for `CC(=O)c1ccc(-c2ccccc2F)cc1`, 84.5 to 86.5 °C. As for `Cc1cc(C)cc(CNC(=O)C(Cc2c[nH]c3ccccc23)NC(=O)c2ccccc2)c1` (centres undefined), the figure is 177 to 178 °C; as for `CSCCCn1cc(C(=O)NCc2ccc(Cl)cc2)c(=O)c2cc(CN3CCOCC3)ccc21`, 102 to 104 °C. Molecule `CCc1ccc(C=CC(=O)O)cc1` gave a melting point of 140 °C. Molecule `CP(=O)(CCC(=O)O)CCC(=O)O` yielded a melting point of 172 to 174 °C. As for `CCC(C)(Oc1ccc(CC(=O)c2ccc3c(c2)CCC3)cc1)C(=O)O` (centres undefined), the figure is 160 to 161 °C. For `O=P(O)(O)Cc1ccc(-c2ccc(CP(=O)(O)O)cc2)cc1`, the melting point is 114 °C. Regarding `COC(=O)c1cc(S(N)(=O)=O)ccc1S(=O)(=O)CCCO`, the melting point was 124 to 126 °C. `C[C@@H]1CN(CC(=O)Nc2ccccc2Cl)C[C@H](C)N1c1ncnc2sccc12`: the melting point is 206 to 207 °C. For the molecule `CC1(Cn2c(=O)oc3ccc(Br)cc32)Cn2cc([N+](=O)[O-])nc2O1` (centres undefined), the melting point lay in the range of 243 to 246 °C. As to `O=C1OC(Cl)(c2ccc(Cl)cc2Cl)c2ccccc21` (centres undefined), the melting point was 148 to 149 °C. For `CON(C)C(=O)c1cc(O)cc2cc(-c3ccc(O)cc3)oc12`, the melting point was in the range of 125 to 127 °C. Regarding `Cc1cc(-c2ccnc(C#N)c2)n(-c2ccc(F)cc2)n1`, the melting point was 94 to 95 °C.

Regarding `CC(C)(C)OC(=O)N1Cc2c(Br)sc(Br)c2C1`, the melting point was in the range of 144 to 145 °C. On to `O=C1CCC(N2Cc3c(OCc4cc(CN5CCOCC5)on4)cccc3C2=O)C(=O)N1` (centres undefined), for which the melting point was 218 to 220 °C. With `COc1cccc(C(=O)NCCc2ccc(-c3ccc(OC(C)(C)C(=O)O)cc3)cc2)c1`, the melting point is 117 °C. In turn, `CCCCc1nnc2ccccc2c1Cc1ccc(-c2ccccc2)c(C(=O)O)c1` returned a melting point of 210 °C. `COc1ccc(N2CCN(c3c(C)c(C)c4c(c3C)CC(C)(CN3CCCC3)O4)CC2)cc1` (centres undefined) had a melting point of 129 to 132 °C. On to `O=C(Nc1ccc(F)cc1)N(CCO)CCCCO`, for which the melting point is 62 to 64 °C. Molecule `CN(C)c1c(F)c(F)c(F)c2c1c(=O)c(C(=O)O)cn2C1CC1` showed a melting point of 160 to 163 °C.

The molecule `Cc1cc(-c2ccc(C(F)(F)F)cc2)nc2ccnn12` had a melting point of 89 to 90 °C. `CCCCc1oc2ccccc2c1C(=O)NCc1ccc2c(-c3ccccc3)c(OCc3nnn[nH]3)ccc2c1` displayed a melting point of 192 to 196 °C. `Cc1ccc2c(c1)c(-c1ccccc1)nn2CO` had a melting point of 109 to 111 °C. With `OCc1ccc(-c2ncn(-c3ccc(OC(F)(F)F)cc3)n2)cc1`, the melting point lay in the range of 112 to 114 °C. For `COc1ccc2c(c1)C(C)(CC#N)C(=O)N2C` (centres undefined), the melting point fell in the range of 75.5 to 76 °C. With `COC(=O)CC[C@H]1CC[C@@H](NC(=O)N(NC(C)=O)c2ccc(C#N)cc2)CC1`, the melting point lay in the range of 132 to 134 °C. The molecule `CS(=O)(=O)c1ccc(-c2cnn(Cc3cccnc3)c(=O)c2-c2ccc(F)cc2)cc1` returned a melting point of 160 to 161 °C. As for `CCCCNC(=O)NS(=O)(=O)c1cccc2c1S(=O)(=O)N(C)C2`, the figure is 162 to 164 °C; as for `CCCCCN1Cc2cc(C)ccc2CCC1=O`, 95 to 97 °C. As for `CCCCCCCCCCOCCCCCCCSCCCO`, the figure is 28 to 32 °C. The molecule `COC(=O)CCC(=O)c1ccc(-c2cccc(F)c2)cc1` displayed a melting point of 99 to 101 °C.

As for `O=Cc1cccc(CF)n1`, the melting point was determined as 60 °C. Regarding `CSC1C(=O)Nc2ccc(Oc3ccc(F)c(C(F)(F)F)c3Cl)cc21` (centres undefined), the melting point was 137 to 142 °C. As to `O=C(Nc1ccc(Cl)c(C(F)(F)F)c1)Nc1ccc(Cl)cc1-c1nnn[nH]1`, the melting point lay in the range of 245 to 247 °C.

`NC(=S)c1c(F)cccc1Cl` yielded a melting point of 153 to 157 °C. As for `CC1=NC(C)(C)SC1=NO`, the figure is 159 to 161 °C; as for `Cc1c(N)c([N+](=O)[O-])cc(F)c1F`, 87.2 to 88 °C. As for `CN(Cc1ccccc1)c1ccccc1C(=O)O`, the melting point was in the range of 86 to 88 °C. With `O=C1N(Cc2nnc(C(F)(F)F)o2)c2ccccc2C12COc1cc3c(cc12)OCCO3` (centres undefined), the melting point is 137 to 139 °C.

The molecule `COc1ccc(-c2ccc(C(=O)Nc3cc4ncc(CN5CCCC5)cc4cc3C)c(F)c2)cc1` registered a melting point of 187 to 190 °C.

In turn, `CCOc1ccc(-n2c(N)cc(=O)nc2Nc2ccccc2)cc1` displayed a melting point of 114 to 118 °C. In turn, `CCOC(=O)C(=O)Nc1ccccc1C(=O)Nc1nnn[nH]1` registered a melting point of 231 to 232 °C. As for `CCCCCCCCCCCCCCCC(=O)OCCN(C)C`, the melting point was in the range of 46 to 48 °C. In turn, `COc1cc(S(=O)(=O)Nc2ccccc2)c(OC)cc1NC(=O)[C@@](C)(O)C(F)(F)F` displayed a melting point of 194 to 195 °C. Turning to `CN(C)c1ccnc(CSc2c[nH]c3ccccc23)c1`, the melting point was 189 to 191 °C.

`c1ccc2cc(Cn3c(-c4ccc5c(c4)OCO5)nc4ccccc43)ccc2c1`: the melting point worked out at 180 °C. As to `OC1(C(F)(F)F)CC(c2ccc(Cl)cc2)=NN1Cc1cccnc1` (centres undefined), the melting point fell in the range of 158 to 160 °C. For `CCCCOC(=O)CN(C(=O)C(F)(F)F)C(NC(C)C)P(=O)(O)OSCC` (centres undefined), the melting point lay in the range of 64 to 65 °C. Consider `CC(C)NC(=O)Nc1cc(-c2c(-c3ccc(F)cc3)nc3cccnn23)ccn1`, for which the melting point lay in the range of 222 to 223 °C. The molecule `CCOC(=O)C(C)(C)Oc1ccc(CNc2ccc(Cl)cc2)cc1` showed a melting point of 58 to 60 °C.

As for `CC(=O)CC(C)c1ccc(-c2ccccc2F)cc1` (centres undefined), the melting point was in the range of 60 to 61 °C.

Take `CCOC(=O)COc1ccc(NC(=O)OC(C)(C)C)cc1Cl`: the melting point is 119 to 120 °C. In turn, `CCOC(=O)CCCCCOc1cc2c(c(Cl)c1Cl)C(=O)C(C)(C1CCCC1)C2` (centres undefined) displayed a melting point of 69 to 72 °C.

`COc1cccc(Cc2cc3cccc(-c4cccc(C(=O)NCCN5CCCC5)c4)c3o2)c1` had a melting point of 101 to 102 °C.

In turn, `O=[N+]([O-])c1nccn1CC(O)CC1C2CCCN21` (centres undefined) registered a melting point of 81 to 81.5 °C. As for `CCN(C(=O)Cc1ccc(S(C)(=O)=O)cc1)C1CCN(C(=O)OC(C)(C)C)CC1`, the figure is 138 to 140 °C. `CC(=O)OC(C)c1cccc2cc(C(=O)CBr)oc12` (centres undefined) yielded a melting point of 86 to 88 °C. As for `CN(Cc1cccs1)C(=O)C1CC2C=CC1C2` (centres undefined), the figure is 74 to 75 °C. `COc1ccc(-c2cc(=Nc3c(C)cc(C)cc3C)n(C)c(=NCc3ccccc3)n2C)cc1OC` yielded a melting point of 97 to 100 °C.

Molecule `CCCCCCOc1ccc(-c2cc(C=O)ccc2C=O)cc1` registered a melting point of 44.5 to 45.5 °C. Consider `CCCCOC(=O)c1cc(=O)c2c3c(cc(Cl)c2o1)-c1ccc(S(=O)(=O)O)cc1CO3`, for which the melting point lay in the range of 95 to 97 °C. `Cn1nc(S(C)(=O)=O)c(=O)c2ccc(Cl)cc21` yielded a melting point of 270 to 272 °C. For the molecule `Cc1ccc(-c2cccnc2C#N)cc1`, the melting point lay in the range of 136 to 138 °C. `O=C(Nc1c([N+](=O)[O-])cnn1-c1c(Cl)cc(C(F)(F)F)c(Cl)c1Cl)C(F)(F)F` registered a melting point of 136 to 137 °C. `O=C(CCCN1CCN(c2cc3ccccc3cn2)CC1)c1ccc(F)cc1` yielded a melting point of 148 to 150 °C. Consider `Cc1ncc(OC(=O)C2(C3CCCCC3)CCCCC2)cn1`, for which the melting point was 52 to 55 °C.

`CC(=O)Nc1ccc(Br)c2c1CN(C(C)=O)CC2` yielded a melting point of 127 to 130 °C. `CC(=O)c1cc2c(s1)SCCc1cc(=O)n(-c3ccc(Cl)cc3)nc1-2` showed a melting point of 248 to 250 °C. `O=c1[nH]nc2ccc(NCCCN3CCC(OC(c4ccccc4)c4ccccc4)CC3)nn12`: the melting point is 156 to 170 °C. The molecule `COCCC(O)c1cc2c(=O)n(NS(C)(=O)=O)c(=O)[nH]c2cc1C(F)(F)F` (centres undefined) returned a melting point of 180 to 184 °C.
